Here are results for 5 molecules from US4175130A, “Oxazole- and thiazole-alkanoic acid compounds” (Yoshitomi Pharmaceutical Industries, Ltd., priority 1977, dated 1979).

The test system of one series is serum cholesterol. The experiment in a line: Hypolipidemic action: male mice with hyperlipidemia (high cholesterol diet). Format: in vivo, male dd-strain mice. The following applies: dd mice, 100 mg/kg/day oral, 5 days, * p<0.05 (A, B, C, D starred; clofibrate not). As for the experimental part:
(2) Male mice with hyperlipidemia:
Male dd-strain mice (20-25 g) were used. Each group was composed of 10 animals. Mice were fed a high cholesterol diet (1% cholesterol, 0.2% sodium cholate, 5% olive oil and 93.8% commercial diet) for 5 days. The test compound was orally administered to the animals once a day throughout the experimental period. The serum cholesterol was determined by the procedure described in Experiment (1).

Series [1] can be described thus: Liver weight / hepatomegaly. Format: in vivo, male Wistar rats. The following applies: for Increase (%) Liver Weight: Wistar rats, 100 mg/kg/day oral, 5 days, * p<0.05 (only clofibrate starred).
Series [2] deals with Cholesterol and triglyceride in the serum. The experiment in a line: Hypolipidemic action: male rats with normolipidemia (serum cholesterol and triglyceride, oral, 5 days). The note with it: Wistar rats, 100 mg/kg/day oral, control = 100%, * p<0.05 (all values starred). Format: in vivo. As for the experimental part: (1) Male rats with normolipidemia:
Male Wistar rats (170-250 g) were used. Each group was composed of 6 animals. The test compound was orally given by a gastric tube for 5 days. Cholesterol and triglyceride in the serum were determined by the standard methods using antoanalyzer (Technicon Inc.). The levels in the control group were considered as 100% and the reduction rate (%) in the test group was calculated.

The nature of the next series: Acute Toxicity (oral). The following applies: mouse, in vivo, mice, p.o., mortality within 7 days. As for the experimental part: Male dd-strain mice (20-25 g) were used. Each group was composed of 10 animals. The test compound was orally administered to the animals. The LD50 (mg/kg) was calculated from the mortality within 7 days after administration of the test compound.

The nature of series [3]: Serum Levels in Rhesus Monkey. Format: in vivo, rhesus monkeys. The note with it: 10 mg/kg oral; for Cmax: read-out: Peak level (serum). The method, then:
Serum Levels in Rhesus Monkey
The test compound was orally administered to rhesus monkeys at the dose of 10 mg/kg. Blood was collected at 0, 2, 4, 6, 8, 24, 30 and 48 hours after the administration of the test compound. After centrifugation, serum was stored at -20° C. until taken for analysis. Serum drug was extracted with ethyl acetate and fluorometrically determined.
(Wavelengths for fluorometric determination:
excitation: 294 nm, emission: 365 nm with compound A;
excitation: 305 nm, emission: 370 nm with compound D)

As to `O.O=C(O)Cc1nc(-c2ccc(Cl)cc2)oc1Oc1ccccc1` [B, 2-p-Chlorophenyl-5-phenoxy-4-oxazoleacetic acid monohydrate], the “Decrease (%) of Serum Cholesterol” value in the series on serum cholesterol came out at 38%. Further, in series [1], the “Increase (%) Liver Weight” value is -6%. For the same molecule, in series [2], the “Decrease (%) Cholesterol” value amounted to 37% and the “Decrease (%) Triglyceride” value turned out to be 33%.
The like results for `CCOC(=O)Cc1nc(-c2ccc(Cl)cc2)sc1Sc1ccccc1` [C, Ethyl 2-p-chlorophenyl-5-phenylthio-4-thiazoleacetate] were, in that order, 34%, 15%, 40% and 29%.
On to `CCOC(=O)C(C)(C)Oc1ccc(Cl)cc1` [Clofibrate, reference compound], for which, in “Acute Toxicity (oral)”, the median lethal dose (LD50) at 168 h turned out to be 1500 mg/kg. Moreover, the “Decrease (%) of Serum Cholesterol” value with serum cholesterol was 16%. Also, the liver enlargement entry in series [1] (100 mg/kg) is “significant liver enlargement”. Further, in series [1], the “Increase (%) Liver Weight” value is on record as 17%. In series [2], the “Decrease (%) Cholesterol” value is reported as 32% and the “Decrease (%) Triglyceride” value came out at 34%.
With `CCOC(=O)Cc1nc(-c2ccc(Cl)cc2)oc1Oc1ccc(Cl)cc1` [Compound A, Ethyl 2-p-chlorophenyl-5-p-chlorophenoxy-4-oxazoleacetate], the LD50 at 168 h in the series “Acute Toxicity (oral)” was over 6000 mg/kg. Moreover, the “Decrease (%) of Serum Cholesterol” value in the series with serum cholesterol was 37%. Besides, the hepatomegaly result in series [1] (500 mg/kg) is recorded as “no hepatomegaly”. For the same molecule, the “Increase (%) Liver Weight” value in series [1] came to 5%. In series [3], the half-life is 30 h and the Cmax amounted to 30000 ng/mL. In series [2], the “Decrease (%) Cholesterol” value is listed as 40% and the “Decrease (%) Triglyceride” value is listed as 33%.
In the case of `CCOC(=O)Cc1nc(-c2ccc(Cl)cc2)oc1OCC` [D, Ethyl 2-p-chlorophenyl-5-ethoxy-4-oxazoleacetate, reference compound], in “Acute Toxicity (oral)”, the LD50 at 168 h is 3700 mg/kg. For the same molecule, the “Decrease (%) of Serum Cholesterol” value in the series with serum cholesterol was determined as 37%. The “Increase (%) Liver Weight” value in series [1] was determined as 5%. Besides, in series [3], the half-life was 3 h and the Cmax is 15000 ng/mL. Also, in series [2], the “Decrease (%) Cholesterol” value was 32% and the “Decrease (%) Triglyceride” value turned out to be 33%.
